Reference: paper PMC7913925, “Design and Evaluation of a Polypeptide That Mimics the Integrin Binding Site for EDA Fibronectin to Block Profibrotic Cell Activity” (International Journal of Molecular Sciences, 2021)
Bridges are numbered along the chain shown (N, C = ends). Where no end group is shown, it is not given here.

Tests used:
[1] = system: F-actin in NIH/3T3 fibroblasts; experiment: F-actin staining; assay type: cell-based, mouse; conditions: 48 h, TGF-β1 10 ng/mL, AF38Pep 10 µg/mL
Protocol: Cells were grown to 40% confluence in 8-well glass chamber slides (Nunc, Thermo Fisher Scientific), prior to growth arrest and treatment. Cells were washed with PBS before fixation in 4% paraformaldehyde for 10 min at room temperature. Next, cells were permeabilized with 0.1% (v/v) Triton X-100 in PBS for 10 min at room temperature. For visualization of ECM, cells were fixed with 100% ice-cold methanol for 8 min at −20 °C. Slides were washed with PBS and blocked with 1% goat serum (TBD Science, Tianjin, China) for 30 min before washing with 0.1% (w/v) BSA in PBS. Subsequently, slides were incubated with monoclonal mouse anti-α-SMA antibody (Sigma-Aldrich, 1:50) diluted in 0.1% BSA-PBS, overnight at 4 °C. After further wash steps, slides were incubated with goat anti-mouse IgG CF-488 secondary antibody (Abcam, 1:1000) in 0.1% BSA-PBS for 1 h at room temperature and under darkness. For F-actin visualization, after fixation and permeabilization; cells were incubated with phalloidin conjugated to FITC (Sigma-Aldrich) in 0.1% BSA-PBS, overnight at 4 °C. Cells were then mounted in DAPI Fluoromount-G (Thermo Fisher Scientific) and imaged using a Zeiss Axio Imager Z1 UV fluorescence microscope (Zeiss, Jena, Germany) and a Leica TCS SP5 laser scanning confocal microscope (Leica Biosystems, Baden-Württemberg, Germany).

pro-MMP9 = experiment: Gelatinase zymography pro-MMP9; assay type: cell-based, mouse; conditions: 48 h, TGF-β1 10 ng/mL, AF38Pep 10 µg/mL, conditioned medium
Protocol: Conditioned media were collected from cells incubated with serum-free medium (SFM) alone, SFM containing 10 ng/mL TGF-β1, SFM containing 10 µg/mL AF38Pep, or SFM containing both 10 ng/mL TGF-β1 and 10 µg/mL AF38Pep. Conditioned medium was concentrated 10× by filtrating spin columns (Amicon Ultra-4 10 kDa MWCO, Merck Millipore) and protein was quantified by Micro BCA Protein Assay Kit (Thermo Fisher Scientific). A 1.5 mm thick 10% nonreducing acrylamide gel containing gelatin was prepared and 10 µg of sample in 5 × nonreducing buffer was loaded into the gel lanes. The gel was run at 100 V until the protein entered the stacking gel layer, then the voltage was increased to 150 V until the marker achieved resolved band separation. The gels were then washed twice for 30 min using wash buffer to remove SDS and renature the enzymes. Gels were further rinsed for 5–10 min in incubation buffer at 37 °C with agitation to activate the gelatinase reaction. Fresh incubation buffer was added, and the gels were incubated overnight at 37 °C. Gels were stained with staining solution containing Coomassie blue for between 30 min to 1 h, before rinsing with ddH2O and subsequent incubation with de-stain solution until bands could be observed. The gels were transferred to 2% acetic acid and rehydrated overnight for imaging by scanner.

Fn1 mRNA = experiment: qRT-PCR Fn1 mRNA; assay type: cell-based, mouse
Protocol: Reverse transcription (RT) and real-time quantitative PCR (qRT-PCR) were used to assess ACTA2/Acta2, Col1a1, Col3a1, Fn1, Eda-Fn1, Mmp9, Tgfb1, Ltbp1, Hic5, and Mrtfa mRNA expressions. Custom PCR primers were designed in-house (Table 2) and then synthesized by BGI (Beijing, China). Cells were grown in 6-well culture plates and washed with phosphate buffered saline (PBS) before lysis with TRIzon Reagent (CWBio, Beijing, China) and total RNA purification according to the manufacturer’s protocol. Reverse transcription was carried using the TransScript First-Strand cDNA Synthesis SuperMix kit according to the manufacturer’s protocol (TransGen, Beijing, China), using the random primer method for the initiation of cDNA synthesis. Nuclease-free H2O replaced the RNA sample to serve as a negative control for the reverse transcription reaction. For qRT-PCR, 10 µL 2× TransStart Top Green qPCR SuperMix was added to each well of a 96-well PCR plate containing 0.4 µL forward primer, 0.4 µL reverse primer, […], and nuclease-free water to a total volume of 20 µL. The qRT-PCR reaction was completed using a CFX96 Real-Time PCR Detection System (Bio-Rad Laboratories, Hercules, CA, USA). Amplification used the following parameters: 94 °C for 30 s, followed by 40 cycles of 94 °C for 5 s, 55 °C for 15 s, 72 °C for 10 s, and then a dissociation stage (melt-curve). […]

[2] = system: human HFL1 lung fibroblast cells, α-SMA mRNA; experiment: α-SMA mRNA expression (qRT-PCR) in TGF-β1-treated HFL1; assay type: cell-based
Protocol: HFL1 cells were cultured in Kaighn’s modified Ham’s F-12 (F-12K) medium (Sigma-Aldrich) containing NaHCO3 and HEPES buffered to pH 7. Cells were grown to confluence in T75 culture flasks in the presence of 10% fetal bovine serum (FBS; Gibco, Thermo Fisher Scientific, Waltham, MA, USA). HFL1 cells were subcultured using 0.05% trypsin at a ratio of 1:3. NIH/3T3 cells were cultured in Dulbecco’s Modified Eagle Medium (DMEM; HyClone, Thermo Fisher Scientific) containing 100 U/mL penicillin and 100 μg/mL streptomycin. Cells were grown to confluence in T75 culture flasks in the presence of 10% FBS. NIH/3T3 cells were subcultured using 0.05% trypsin/EDTA at a ratio of 1:3. All cells were maintained at 37 °C and 5% CO2, and growth medium was replenished every 3 days until experimentation. Cells were growth-arrested in serum-free medium for 48 h before experiments, and all experiments were performed under serum-free conditions using cells between passages 3 and 8.
Reverse transcription (RT) and real-time quantitative PCR (qRT-PCR) were used to assess ACTA2/Acta2, Col1a1, Col3a1, Fn1, Eda-Fn1, Mmp9, Tgfb1, Ltbp1, Hic5, and Mrtfa mRNA expressions. Custom PCR primers were designed in-house (Table 2) and then synthesized by BGI (Beijing, China). […]

pro-MMP9 gelatinase activity (pro-MMP9): suppressed activity levels
Sequence: VMPYISTTPAKPCTSENCGNSWYGGFKSKNENKIYFIN (disulfide 13-18 (inferred)) [AF38Pep]
F-actin fiber assembly [1]: cellular actin reassembly into F-actin fibers still occurred
fibronectin mRNA expression (Fn1 mRNA; 72 h, TGF-β1 + AF38Pep): all inhibited
fibronectin mRNA expression (Fn1 mRNA; by 48 h, vs TGF-β1-only): significant attenuation
attenuation of TGF-β1-induced α-SMA mRNA ([2]; HFL1, 48 h, 0.1–10 µg/mL): significantly reduced by 0.1–10 µg/mL peptide at 48 h
attenuation of TGF-β1-induced α-SMA mRNA ([2]; HFL1, 72 h, 10 µg/mL): only 10 µg/mL was sufficient for inhibition of expression at 72 h
